The source of these data is the NIST ThermoML archive (doi:10.1016/j.fluid.2015.12.021).

± gives the expanded uncertainty stated by the source.

For the series the following is noted: Crystal; visual observation.

Turning to `O=C(O)CCCCC(=O)O` [1,6-hexanedioic acid], the Normal melting temperature amounted to 153.20 ± 0.5 °C.

In the case of `Cc1ccc(C(=O)O)cc1` [4-methylbenzoic acid], the Normal melting temperature was found to be 179.60 ± 0.5 °C.

On to `O=C(O)c1ccccc1` [benzoic acid], for which the Normal melting temperature was 122.4 ± 0.5 °C.

Consider `c1ccc2ccccc2c1` [naphthalene], for which the Normal melting temperature stood at 80.26 ± 0.5 °C.

With `CCCCCCCCCCCCCCCCCC(=O)O` [octadecanoic acid], the Normal melting temperature came out at 69.80 ± 0.5 °C.

Take `c1ccc2c(c1)ccc1ccccc12` [phenanthrene]: the Normal melting temperature worked out at 99.24 ± 0.5 °C.
